The compounds below were run on influenza virus (assay: microbe, parasite or virus in culture). Details: unidentified influenza virus, 72 h, read-out: CPE EC50, effective concentration to achieve 50% CPE inhibition, 3 days incubation, WST-8.
Type: cell-based, influenza virus (MDBK or MDCK cells)

SMILES	EC50 [nM]
COCCCC1N(C(C)C)C(=O)c2c(O)c(=O)ccn2N1C1c2ccc(F)cc2CCc2cc(F)ccc21 (stereo not drawn) [Example 526]	19
CC(C)N1C(=O)c2c(O)c(=O)ccn2N(C2c3ccccc3CCc3ccccc32)C1CCN (stereo not drawn) [Example 533]	391
CC(C)N1C(=O)c2c(O)c(=O)ccn2N(C2c3ccccc3CCc3ccccc32)C1CCCN (stereo not drawn) [Example 534]	1200
CC(C)N1C(=O)c2c(O)c(=O)ccn2N(C2c3ccccc3CCc3ccccc32)C1CCN(C)C (stereo not drawn) [Example 537]	22
CCN(CC)CC1N(CCO)C(=O)c2c(O)c(=O)ccn2N1C1c2ccccc2CCc2ccccc21 (stereo not drawn) [Example 550]	42
CN(C)CC1N(CCO)C(=O)c2c(O)c(=O)ccn2N1C1c2ccccc2CCc2ccccc21 (stereo not drawn) [Example 551]	107
COCCN1C(=O)c2c(O)c(=O)c(C(=O)O)cn2N(C2c3ccccc3CCc3ccccc32)C1CCSC (stereo not drawn) [Example 556]	412
COCCN1C[C@H](C(c2ccccc2)c2ccccc2)n2cc(Cl)c(=O)c(O)c2C1=O [Example 558]	541
N#Cc1ccccc1N1CC(C2c3ccccc3CCc3ccccc32)n2ccc(=O)c(O)c2C1=O (stereo not drawn) [Example 568]	2810

These compounds were tested against cap-dependent endonuclease (RNP fraction containing PB1•PB2•PA complex) (Influenza A virus, UniProt P15659) (assay: biochemical). Details: RNP from A/WSN/33 virus, capped Cy3/BHQ2 30mer RNA substrate, 60 minutes at room temperature; read-out: CEN IC50.

SMILES	IC50 [nM]
COCCN1C[C@H](C(c2ccccc2)c2ccccc2)n2cc(CO)c(=O)c(O)c2C1=O [Example 48]	87
COCCN1C[C@H](C(c2ccccc2)c2ccccc2)n2cc(N)c(=O)c(O)c2C1=O [Example 56]	358
COCCN1C[C@H](C(c2ccccc2)c2ccccc2)n2cc(OC)c(=O)c(O)c2C1=O [Example 62]	110
COCCN1CN(C(c2ccccc2)c2ccccc2)n2cc(C(=O)O)c(=O)c(O)c2C1=O [Example 94]	96
COCCN1CN(Cc2ccccc2-c2ccccc2)n2ccc(=O)c(O)c2C1=O [Example 99]	341
CN(CCN1CN(C(c2ccccc2)c2ccccc2)n2ccc(=O)c(O)c2C1=O)S(=O)(=O)c1ccccc1 [Example 138]	166
O=C(NCCN1CN(C(c2ccccc2)c2ccccc2)n2ccc(=O)c(O)c2C1=O)c1ccccc1 [Example 150]	193
COCC(COC)N1CN(C2c3ccccc3CCc3ccccc32)n2ccc(=O)c(O)c2C1=O [Example 272]	82
O=C1c2c(O)c(=O)ccn2N(C2c3ccccc3CSc3ccccc32)CN1C1CCC(F)(F)CC1 (stereo not drawn) [Example 313]	189
COCCN1CN(C2c3ccccc3CSc3c(F)cccc32)n2ccc(=O)c(O)c2C1=O (stereo not drawn) [Example 336]	51
COCC(COC)N1CN(C2c3ccccc3CSc3c(F)cccc32)n2ccc(=O)c(O)c2C1=O (stereo not drawn) [Example 339]	183
CN1CN(C2c3ccccc3CSc3cc(Cl)ccc32)n2ccc(=O)c(O)c2C1=O (stereo not drawn) [Example 348]	54
CC(C)N1CN(C2c3ccccc3CSc3cc(F)ccc32)n2ccc(=O)c(O)c2C1=O (stereo not drawn) [Example 352]	67
Cc1cccc2c1SCc1ccccc1C2N1CN(C(C)C)C(=O)c2c(O)c(=O)ccn21 (stereo not drawn) [Example 356]	66
COCCN1CN(C2c3ccccc3COc3c(Cl)cccc32)n2ccc(=O)c(O)c2C1=O (stereo not drawn) [Example 396]	56
C[C@@H](N1CN([C@@H]2c3ccccc3SCc3c(Cl)cccc32)n2ccc(=O)c(O)c2C1=O)C(F)(F)F [Example 417]	30
C[C@@H](N1CN([C@H]2c3ccc(F)cc3CSc3ccccc32)n2ccc(=O)c(O)c2C1=O)C(F)(F)F [Example 454]	12
C[C@@H](N1CN([C@@H]2c3ccccc3SCc3c(Br)cccc32)n2ccc(=O)c(O)c2C1=O)C(F)(F)F [Example 463]	12
C[C@@H](N1CN([C@H]2c3cccc(F)c3CSc3c(F)cccc32)n2ccc(=O)c(O)c2C1=O)C(F)(F)F [Example 469]	16
C[C@@H](N1CN([C@H]2c3ccc(F)cc3CSc3c(F)cccc32)n2ccc(=O)c(O)c2C1=O)C(F)(F)F [Example 470]	8
CC(=O)N(C)CC1N(C(C)C)C(=O)c2c(O)c(=O)ccn2N1C1c2ccccc2CCc2ccccc21 (stereo not drawn) [Example 525]	141

From patent publication US9815835B2, “Substituted polycyclic carbamolypyridone derivative” (priority 2009, dated 2017)
